Where a SMILES comes first, the peptide text is derived from it. Where no end group is shown, it is not given here.
How the values were obtained:
[1] = target: T1, binding of α4 β1 integrin to VCAM-1 (Homo sapiens, UniProt P05556+P13612); assay: Cell-protein assay: calcein-labelled Ramos cells binding to VCAM-mouse IgG fusion protein on magnetic beads; format: cell-based; conditions: less than about 100; assay format not stated
T1 construct: endogenous in cells; host or cells: Ramos (human B-cell line) for endogenous α4β1; the VCAM-mouse IgG fusion was made in house, secreted from transfected COS cells and captured on goat anti-mouse IgG Dynal beads
T1 sequence (P13612 34-1032): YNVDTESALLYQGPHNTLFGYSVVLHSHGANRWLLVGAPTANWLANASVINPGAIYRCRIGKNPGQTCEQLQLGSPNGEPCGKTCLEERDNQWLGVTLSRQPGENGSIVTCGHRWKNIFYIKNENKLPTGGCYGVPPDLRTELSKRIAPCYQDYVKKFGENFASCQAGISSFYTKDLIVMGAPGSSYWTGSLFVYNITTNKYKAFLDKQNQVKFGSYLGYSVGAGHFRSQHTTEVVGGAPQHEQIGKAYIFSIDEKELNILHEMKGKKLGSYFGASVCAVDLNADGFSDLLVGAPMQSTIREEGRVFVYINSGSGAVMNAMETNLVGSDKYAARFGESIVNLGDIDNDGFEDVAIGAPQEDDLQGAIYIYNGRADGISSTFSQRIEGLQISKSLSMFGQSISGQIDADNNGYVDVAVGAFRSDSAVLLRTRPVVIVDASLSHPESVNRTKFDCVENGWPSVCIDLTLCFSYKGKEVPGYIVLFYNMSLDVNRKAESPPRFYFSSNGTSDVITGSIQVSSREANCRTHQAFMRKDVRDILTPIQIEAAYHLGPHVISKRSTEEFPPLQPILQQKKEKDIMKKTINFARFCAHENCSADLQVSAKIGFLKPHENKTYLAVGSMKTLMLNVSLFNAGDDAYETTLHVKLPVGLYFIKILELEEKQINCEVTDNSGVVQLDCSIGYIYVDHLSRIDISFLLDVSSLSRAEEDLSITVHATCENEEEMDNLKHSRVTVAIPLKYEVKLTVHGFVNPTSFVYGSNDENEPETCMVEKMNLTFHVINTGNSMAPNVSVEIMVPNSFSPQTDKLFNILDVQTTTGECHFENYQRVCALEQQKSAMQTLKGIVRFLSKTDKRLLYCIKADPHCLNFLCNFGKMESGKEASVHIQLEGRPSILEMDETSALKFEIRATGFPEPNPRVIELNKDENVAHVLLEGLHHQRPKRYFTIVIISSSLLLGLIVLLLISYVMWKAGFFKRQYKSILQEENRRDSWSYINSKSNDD
T1 sequence (P05556 21-798): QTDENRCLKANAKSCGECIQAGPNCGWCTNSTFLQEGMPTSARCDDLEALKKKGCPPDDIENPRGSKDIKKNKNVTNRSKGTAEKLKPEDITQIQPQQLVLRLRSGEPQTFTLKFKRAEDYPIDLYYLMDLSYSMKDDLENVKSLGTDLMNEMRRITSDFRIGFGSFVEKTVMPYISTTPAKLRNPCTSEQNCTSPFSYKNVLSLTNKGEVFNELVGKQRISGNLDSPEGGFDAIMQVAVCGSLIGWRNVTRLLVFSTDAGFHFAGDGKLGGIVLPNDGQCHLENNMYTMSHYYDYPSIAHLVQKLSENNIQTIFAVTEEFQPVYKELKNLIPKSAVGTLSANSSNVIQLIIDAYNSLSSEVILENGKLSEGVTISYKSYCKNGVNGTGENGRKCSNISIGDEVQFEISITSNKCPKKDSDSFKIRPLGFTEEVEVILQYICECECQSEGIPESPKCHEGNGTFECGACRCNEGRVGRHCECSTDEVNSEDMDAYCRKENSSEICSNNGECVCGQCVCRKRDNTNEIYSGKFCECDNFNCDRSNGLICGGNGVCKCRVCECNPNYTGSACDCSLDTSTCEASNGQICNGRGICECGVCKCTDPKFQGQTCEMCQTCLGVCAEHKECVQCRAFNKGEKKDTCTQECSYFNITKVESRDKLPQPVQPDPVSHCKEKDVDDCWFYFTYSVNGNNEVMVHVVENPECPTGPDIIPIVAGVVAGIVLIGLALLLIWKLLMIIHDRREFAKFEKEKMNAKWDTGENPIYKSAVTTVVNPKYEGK
Description: The VCAM-1 binding assays involved assessing the ability of cells that express α4 β1 to bind cells expressing VCAM (cell-cell assay) or to bind purified VCAM protein (cell-protein assay). The integrin-expressing cell types used in these assays included the human B-cell line, Ramos, and the human promyelocytic line, HL-60. The cell-cell assay was used to compare the relative potency of peptides at a single dose. The cell-protein assay was used to generate dose response curves and determine IC50 values.
An expression vector was designed such that a region of VCAM known to bind the integrin was-expressed as a fusion protein with mouse IgG. A cDNA containing the two N-terminal domains of human VCAM was generated by the polymerase chain reaction (PCR) from a full length VCAM cDNA. Similarly, a cDNA containing the hinge, CH2 and CH3 regions of mouse IgG2A was amplified by PCR from cDNA made from total RNA isolated from the hybridoma cell line 402C10. The VCAM cDNA was ligated to the mouse IgG cDNA and cloned into a mammalian expression vector. […] The media was collected and active protein was purified by immunoprecipitation using Dynal magnetic polystyrene beads coated with goat anti-mouse IgG. Following immunoprecipitation, the beads bound Ramos cells that expressed the integrin α4 β1.
Ramos cells were fluorescently labeled with calcein AM (Molecular Probes) and resuspended in 1 ml of binding buffer (Hanks' balanced salt solution, pH 7.4, 1.0 mM CaCl2, 1.0 mM MgCl2 and 1.0 mM MnCl2). The beads (10 μl, 4×10^6 beads/ml) were placed in wells of a 96-well microtiter dish with 10 μl of peptide at various concentrations. The beads were incubated with 10 μl of labeled cells (10^7 cells/ml) for 10 min at room temperature. Following immobilization of the beads onto the plastic with a magnet, unbound cells were removed by washing three times with binding buffer. The remaining bound cells were lysed in 50 mM Tris, pH 7.4, 5.0 mM EDTA, 1.0% NP-40 and quantitated by fluorimetry using a Millipore Cytofluor 2350 fluorimeter. Dose response curves were calculated and IC50 values determined. Peptides having the amino acid residue sequences of SEQ ID NOs:8-102 were tested for their ability to inhibit the binding of α4 β1 integrin to VCAM-1.

[2] = target: T2, binding of the integrin α4 β1 to VCAM (Homo sapiens, UniProt P05556+P13612); assay: Cell-cell assay: 35S-labelled Ramos cells binding to VCAM expressing CHO cells; format: cell-based; conditions: single concentration at which SEQ ID NO:9 gives approximately 50% inhibition of adhesion; SEQ ID NO:9 = 1.00; >2.00 indicates little or no inhibition of VCAM-α4 β1 binding
T2 construct: endogenous in cells; host or cells: Ramos (human B-cell line) for endogenous α4β1; CHO cells stably transfected with human VCAM cDNA for the counter-receptor
T2 sequence (P13612 34-1032): as the sequence (P13612 34-1032) above
T2 sequence (P05556 21-798): as the sequence (P05556 21-798) above
Description: The VCAM-1 binding assays involved assessing the ability of cells that express α4 β1 to bind cells expressing VCAM (cell-cell assay) or to bind purified VCAM protein (cell-protein assay). The integrin-expressing cell types used in these assays included the human B-cell line, Ramos, and the human promyelocytic line, HL-60. The cell-cell assay was used to compare the relative potency of peptides at a single dose. The cell-protein assay was used to generate dose response curves and determine IC50 values. A human VCAM cDNA was amplified by the polymerase chain reaction (PCR) from cDNA reverse transcribed from RNA isolated from human umbilical vein endothelial cells. The VCAM cDNA was ligated into a mammalian expression vector and electroporated into chinese hamster ovary (CHO) cells. Cells were grown in G418 selective media and clones expressing high levels of VCAM were selected by FACS analysis. VCAM expressing CHO cells and nontransfected CHO cells were plated in 48 well cluster dishes at a density of 50,000 cells/well 24 hour prior to assay. The dishes were washed with binding buffer (DMEM, 1% BSA, 1.0 mM MnCl2, 0.02% sodium azide, pH 7.4) immediately prior to assay. […] Unbound cells were removed by washing with binding buffer and the remaining bound cells were lysed with 50 mM Tris, pH 8.0, 150 mM NaCl, 1% SDS and transferred to scintillation vials for quantitation.

Molecule: CC(=O)N[C@@H](Cc1c[nH]c2ccccc12)C(=O)N[C@@H](CC(C)C)C(=O)N[C@@H](CC(=O)O)C(=O)N[C@H](C(N)=O)C(C)C [SEQ ID NO:11, Ac-Trp-Leu-Asp-Val-amide] (Ac-WLDV-NH2)
- peptide concentration at which binding of α4 β1 to VCAM-1 is significantly inhibited [1]: less than 100 μM

Molecule: GPAWLDVP-NH2 [SEQ ID NO:9 E→A, Gly-Pro-Ala-Trp-Leu-Asp-Val-Pro-amide]
- relative quantity of adhered cells in relationship to peptide SEQ ID NO:9 [2]: 1.47

Molecule: GPCWLDVP-NH2 [SEQ ID NO:9 E→C, Gly-Pro-Cys-Trp-Leu-Asp-Val-Pro-amide]
- relative quantity of adhered cells in relationship to peptide SEQ ID NO:9 [2]: 1.49

Molecule: GPDWLDVP-NH2 [SEQ ID NO:9 E→D, Gly-Pro-Asp-Trp-Leu-Asp-Val-Pro-amide]
- relative quantity of adhered cells in relationship to peptide SEQ ID NO:9 [2]: 1.54

Molecule: GPEALDVP-NH2 [SEQ ID NO:9 W→A, Gly-Pro-Glu-Ala-Leu-Asp-Val-Pro-amide]
- relative quantity of adhered cells in relationship to peptide SEQ ID NO:9 [2]: 1.64

Molecule: GPECLDVP-NH2 [SEQ ID NO:9 W→C, Gly-Pro-Glu-Cys-Leu-Asp-Val-Pro-amide]
- relative quantity of adhered cells in relationship to peptide SEQ ID NO:9 [2]: 1.45

Molecule: GPEDLDVP-NH2 [SEQ ID NO:9 W→D, Gly-Pro-Glu-Asp-Leu-Asp-Val-Pro-amide]
- relative quantity of adhered cells in relationship to peptide SEQ ID NO:9 [2]: 1.62

Molecule: GPEWLCVP-NH2 [SEQ ID NO:9 D→C, Gly-Pro-Glu-Trp-Leu-Cys-Val-Pro-amide]
- relative quantity of adhered cells in relationship to peptide SEQ ID NO:9 [2]: 1.78

Molecule: GPEWLDDP-NH2 [SEQ ID NO:9 V→D, Gly-Pro-Glu-Trp-Leu-Asp-Asp-Pro-amide]
- relative quantity of adhered cells in relationship to peptide SEQ ID NO:9 [2]: 2.39

Molecule: GPEWLDEP-NH2 [SEQ ID NO:9 V→E, Gly-Pro-Glu-Trp-Leu-Asp-Glu-Pro-amide]
- relative quantity of adhered cells in relationship to peptide SEQ ID NO:9 [2]: 2.33

Molecule: GPEWLDFP-NH2 [SEQ ID NO:9 V→F, Gly-Pro-Glu-Trp-Leu-Asp-Phe-Pro-amide]
- relative quantity of adhered cells in relationship to peptide SEQ ID NO:9 [2]: 1.13

Molecule: GPEWLDGP-NH2 [SEQ ID NO:9 V→G]
- relative quantity of adhered cells in relationship to peptide SEQ ID NO:9 [2]: 1.67

Molecule: GPEWLDHP-NH2 [SEQ ID NO:9 V→H]
- relative quantity of adhered cells in relationship to peptide SEQ ID NO:9 [2]: 1.77

Molecule: GPEWLDIP-NH2 [SEQ ID NO:9 V→I]
- relative quantity of adhered cells in relationship to peptide SEQ ID NO:9 [2]: 1.81

Molecule: GPEWLDKP-NH2 [SEQ ID NO:9 V→K]
- relative quantity of adhered cells in relationship to peptide SEQ ID NO:9 [2]: 2.68

Molecule: GPEWLDLP-NH2 [SEQ ID NO:9 V→L]
- relative quantity of adhered cells in relationship to peptide SEQ ID NO:9 [2]: 1.54

Molecule: GPEWLDMP-NH2 [SEQ ID NO:9 V→M]
- relative quantity of adhered cells in relationship to peptide SEQ ID NO:9 [2]: 2.46

Molecule: GPEWLDNP-NH2 [SEQ ID NO:9 V→N]
- relative quantity of adhered cells in relationship to peptide SEQ ID NO:9 [2]: 2.31

Molecule: GPEWLDPP-NH2 [SEQ ID NO:9 V→P]
- relative quantity of adhered cells in relationship to peptide SEQ ID NO:9 [2]: 2.45

Molecule: GPEWLDQP-NH2 [SEQ ID NO:9 V→Q]
- relative quantity of adhered cells in relationship to peptide SEQ ID NO:9 [2]: 1.97

Molecule: GPEWLDRP-NH2 [SEQ ID NO:9 V→R]
- relative quantity of adhered cells in relationship to peptide SEQ ID NO:9 [2]: 1.52

Molecule: GPEWLDSP-NH2 [SEQ ID NO:9 V→S]
- relative quantity of adhered cells in relationship to peptide SEQ ID NO:9 [2]: 1.54

Molecule: GPEWLDWP-NH2 [SEQ ID NO:9 V→W, Gly-Pro-Glu-Trp-Leu-Asp-Trp-Pro-amide]
- relative quantity of adhered cells in relationship to peptide SEQ ID NO:9 [2]: 1.08

Molecule: GPEWLDYP-NH2 [SEQ ID NO:9 V→Y, Gly-Pro-Glu-Trp-Leu-Asp-Tyr-Pro-amide]
- relative quantity of adhered cells in relationship to peptide SEQ ID NO:9 [2]: 0.80

Molecule: GPEWLEVP-NH2 [SEQ ID NO:9 D→E, Gly-Pro-Glu-Trp-Leu-Glu-Val-Pro-amide]
- relative quantity of adhered cells in relationship to peptide SEQ ID NO:9 [2]: 1.77

Molecule: GPEWLFVP-NH2 [SEQ ID NO:9 D→F, Gly-Pro-GluoTrp-Leu-Phe-Val-Pro-amide]
- relative quantity of adhered cells in relationship to peptide SEQ ID NO:9 [2]: 1.94

Molecule: GPEWLHVP-NH2 [SEQ ID NO:9 D→H, Gly-Pro-Glu-Trp-Leu-His-Val-Pro-amide]
- relative quantity of adhered cells in relationship to peptide SEQ ID NO:9 [2]: 1.74

Molecule: GPEWLKVP-NH2 [SEQ ID NO:9 D→K, Gly-Pro-Glu-Trp-Leu-Lys-Val-Pro-amide]
- relative quantity of adhered cells in relationship to peptide SEQ ID NO:9 [2]: 1.74

Molecule: GPEWLMVP-NH2 [SEQ ID NO:9 D→M, Gly-Pro-Glu-Trp-Leu-Met-Val-Pro-amide]
- relative quantity of adhered cells in relationship to peptide SEQ ID NO:9 [2]: 1.76

Molecule: GPEWLPVP-NH2 [SEQ ID NO:9 D→P, Gly-Pro-Glu-Trp-Leu-Pro-Val-Pro-amide]
- relative quantity of adhered cells in relationship to peptide SEQ ID NO:9 [2]: 2.19

Molecule: GPEWLQVP-NH2 [SEQ ID NO:9 D→Q, Gly-Pro-Glu-Trp-Leu-Gln-Val-Pro-amide]
- relative quantity of adhered cells in relationship to peptide SEQ ID NO:9 [2]: 2.35

Molecule: GPEWLRVP-NH2 [SEQ ID NO:9 D→R, Gly-Pro-Glu-Trp-Leu-Arg-Val-Pro-amide]
- relative quantity of adhered cells in relationship to peptide SEQ ID NO:9 [2]: 2.14

Molecule: GPFWLDVP-NH2 [SEQ ID NO:9 E→F, Gly-Pro-Phe-Trp-Leu-Asp-Val-Pro-amide]
- relative quantity of adhered cells in relationship to peptide SEQ ID NO:9 [2]: 1.64

Molecule: GPGWLDVP-NH2 [SEQ ID NO:9 E→G, Gly-Pro-Gly-Trp-Leu-Asp-Val-Pro-amide]
- relative quantity of adhered cells in relationship to peptide SEQ ID NO:9 [2]: 1.33

Molecule: GPHWLDVP-NH2 [SEQ ID NO:9 E→H, Gly-Pro-His-Trp-Leu-Asp-Val-Pro-amide]
- relative quantity of adhered cells in relationship to peptide SEQ ID NO:9 [2]: 1.23

Molecule: GPIWLDVP-NH2 [SEQ ID NO:9 E→I, Gly-Pro-Ile-Trp-Leu-Asp-Val-Pro-amide]
- relative quantity of adhered cells in relationship to peptide SEQ ID NO:9 [2]: 1.44

Molecule: GPKWLDVP-NH2 [SEQ ID NO:9 E→K, Gly-Pro-Lys-Trp-Leu-Asp-Val-Pro-amide]
- relative quantity of adhered cells in relationship to peptide SEQ ID NO:9 [2]: 1.34

Molecule: GPLWLDVP-NH2 [SEQ ID NO:9 E→L, Gly-Pro-Leu-Trp-Leu-Asp-Val-Pro-amide]
- relative quantity of adhered cells in relationship to peptide SEQ ID NO:9 [2]: 1.62

Molecule: GPMWLDVP-NH2 [SEQ ID NO:9 E→M, Gly-Pro-Met-Trp-Leu-Asp-Val-Pro-amide]
- relative quantity of adhered cells in relationship to peptide SEQ ID NO:9 [2]: 1.42

Molecule: GPNWLDVP-NH2 [SEQ ID NO:9 E→N, Gly-Pro-Asn-Trp-Leu-Asp-Val-Pro-amide]
- relative quantity of adhered cells in relationship to peptide SEQ ID NO:9 [2]: 0.94

Molecule: GPPWLDVP-NH2 [SEQ ID NO:9 E→P, Gly-Pro-Pro-Trp-Leu-Asp-Val-Pro-amide]
- relative quantity of adhered cells in relationship to peptide SEQ ID NO:9 [2]: 0.98

Molecule: GPQWLDVP-NH2 [SEQ ID NO:9 E→Q, Gly-ProoGln-Trp-Leu-Asp-Val-Pro-amide]
- relative quantity of adhered cells in relationship to peptide SEQ ID NO:9 [2]: 0.93

Molecule: GPRWLDVP-NH2 [SEQ ID NO:9 E→R, Gly-Pro-Arg-Trp-Leu-Asp-Val-Pro-amide]
- relative quantity of adhered cells in relationship to peptide SEQ ID NO:9 [2]: 1.52

Molecule: GPSWLDVP-NH2 [SEQ ID NO:9 E→S, Gly-Pro-Ser-Trp-Leu-Asp-Val-Pro-amide]
- relative quantity of adhered cells in relationship to peptide SEQ ID NO:9 [2]: 0.85

Molecule: GPTWLDVP-NH2 [SEQ ID NO:9 E→T, Gly-Pro-Thr-Trp-Leu-Asp-Val-Pro-amide]
- relative quantity of adhered cells in relationship to peptide SEQ ID NO:9 [2]: 0.98

Molecule: GPVWLDVP-NH2 [SEQ ID NO:9 E→V, Gly-Pro-Val-Trp-Leu-Asp-Val-Pro-amide]
- relative quantity of adhered cells in relationship to peptide SEQ ID NO:9 [2]: 1.04

Molecule: GPWWLDVP-NH2 [SEQ ID NO:9 E→W, Gly-Pro-Trp-Trp-Leu-Asp-Val-Pro-amide]
- relative quantity of adhered cells in relationship to peptide SEQ ID NO:9 [2]: 1.17

Molecule: GPYWLDVP-NH2 [SEQ ID NO:9 E→Y, Gly-Pro-Tyr-Trp-Leu-Asp-Val-Pro-amide]
- relative quantity of adhered cells in relationship to peptide SEQ ID NO:9 [2]: 0.96

— patent US5510332A, “Process to inhibit binding of the integrin α4 62 1 to VCAM-1 or fibronectin and linear peptides therefor” (priority 1994, dated 1996)
